From US20250262189A1, “TREATMENT OF DISEASES ASSOCIATED WITH REDUCTIVE STRESS” (RDiscovery, LLC, priority 2022, published 2025)
“Also recorded” adds a separate entry of the source.

Test system: GDF-15 expression in HUVEC cells
Test: GDF-15 mRNA expression by RT-qPCR in HUVEC cells under AZT-induced reductive stress
Format: cell-based, Human
Details: AZT 5 μM with ZLN-005 1 μM, harvested Day 6, two sets of runs (FIG. 1, FIG. 2), AZT vs. AZT/ZLN P=0.016 (FIG. 2)
Description: A study was performed to evaluate the ability of ZLN-005 to mitigate the effects of reductive stress induced by azidothymidine (AZT), which is believed to inhibit mitochondrial respiratory chain complex I and II.
Human human umbilical vein endothelial (HUVEC) cells were cultured in HuMedia-EG2 medium (Kurabo) at 5×10^4 cells per well in a six-well plate. Medium was supplemented with AZT (Sigma) at 5 μM, with or without ZLN-005 at 1 μM. Cells cultured without AZT and without ZLN-005 were used as non-treated control (NTC)). Medium was changed on days 2 and 4. Cells were harvested on Day 6 for analysis of GDF-15 mRNA expression by quantitative reverse transcription PCR (RT-qPCR).

With `CC(C)(C)c1ccc(-c2nc3ccccc3[nH]2)cc1` [ZLN-005, 2-(4-tert-butylphenyl)-1H-benzimidazole] the “GDF-15 expression compared to cells treated with AZT but not ZLN-005” value was “reduced GDF-15 expression; also recorded: decreases expression of reductive stress biomarker GDF-15”.
